“And” between values parts separate entries of the source, which are not always exact repeats. Equal values may be shown once.
Key:
CYPRO = test: Example II: in-water applied weed control, transplanted paddy rice, greenhouse; format: in vivo, Cyperus rotundus L. (purple nutsedge)
How it was run: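 Transplanted rice and weeds at the first to fourth true leaf stage in flooded mud pots (pH ~7.6 soil), greenhouse ~29/26 °C, 14 h photoperiod. Compound A (acid equivalent) and VLCFA/lipid-synthesis herbicides (active ingredient) injected into the paddy water in 1.25% crop oil concentrate. Injury scored visually at ~3 weeks versus untreated, 0–100%.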

LEFCH = test: as above; format: in vivo, Leptochloa chinensis (L.) Nees (Chinese sprangletop)
Protocol: Weed seeds or nutlets of the desired test plant species were planted in puddled soil (mud) prepared by mixing a shredded, non-sterilized mineral soil (50.5 percent silt, 25.5 percent clay, and 24 percent sand, with a pH of about 7.6 and an organic matter content of about 2.9 percent) and water at a 1:1 volumetric ratio. The prepared mud was dispensed in 365 mL aliquots into 16-ounce (oz.) non-perforated plastic pots with a surface area of 86.59 square centimeters (cm^2) leaving a headspace of 3 centimeters (cm) in each pot. Mud was allowed to dry overnight prior to planting or transplanting. Rice seeds were planted in Sun Gro MetroMix® 306 planting mixture, which typically has a pH of 6.0 to 6.8 and an organic matter content of about 30 percent, in plastic plug trays. Seedlings at the second or third leaf stage of growth were transplanted into 840 mL of mud contained in 32-oz. non-perforated plastic pots with a surface area of 86.59 cm^2 4 days prior to herbicide application. The paddy was created by filling the headspace of the pots with 2.5 to 3 cm of water. When required to ensure good germination and healthy plants, a fungicide treatment and/or other chemical or physical treatment was applied. The plants were grown for 4-22 days in a greenhouse with an approximate 14 hr photoperiod which was maintained at about 29′C during the day and 26° C. during the night. Nutrients were added as Osmocote® (19:6:12, N:P:K+ minor nutrients) at 2 g per 16-oz. pot and 4 g per 32-oz. pot. Water was added on a regular basis to maintain the paddy flood, and supplemental lighting was provided with overhead metal halide 1000-Watt lamps as necessary. The plants were employed for testing when they reached the first through fourth true leaf stage.
Treatments consisted of the acid or esters of 4-amino-3-chloro-5-fluoro-6-(4-chloro-2-fluoro-3-methoxy-phenyl)pyridine-2-carboxylic acid (compound A) each formulated as an SC (suspension concentrate) and various herbicidal components alone and in combination. Forms of compound A were applied on an acid equivalent basis.
The herbicidal components were applied on an active ingredient basis and included very long chain fatty acid (VLCFA) synthesis-inhibiting and fatty acid/lipid synthesis-inhibiting herbicides acetochlor (technical grade material), acetochlor+dichlormid formulateded as Topnotch®, pretilachlor (technical grade material), butachlor formulated as Butachlor EC, fentrazamide formulated as Fentrazamide EC, thiobencarb formulated as Bolero® 8EC, cafenstrole formulated as Himeadow® WP or Lapost® Flowable, benfuresate formulated as Full Shot®, anilofos (technical grade material), mefenacet (technical grade material), molinate (technical grade material), and thenylchlor (technical grade material).
Treatment requirements for each compound or herbicidal component were calculated based upon the rates being tested, the concentration of active ingredient or acid equivalent in the formulation, an application volume of 2 mL per component per pot, and an application area of 86.59 cm^2 per pot.
For formulated compounds, a measured amount was placed in an individual 100 or 200 mL glass vial and was dissolved in a volume of 1.25% (v/v) Agri-Dex® crop oil concentrate to obtain application solutions.
For technical grade compounds, a weighed amount was placed in an individual 100 to 200 mL glass vial and was dissolved in a volume of acetone to obtain concentrated stock solutions. […] The concentrated stock solutions obtained were diluted with an equivalent volume of an aqueous mixture containing 2.5% (v/v) crop oil concentrate so that the final application solutions contained 1.25% (v/v) crop oil concentrate.
Applications were made by injecting with a pipetter appropriate amounts of the application solutions, individually and sequentially, into the aqueous layer of the paddy. Control plants were treated in the same manner with the solvent blank. […]

ECHCG = test: Example V: field trial, in-water application to transplanted rice, Niigata, Japan; format: in vivo, Echinochloa crus-galli; settings: early post-emergence; for Visual Weed Control ECHCG (11 DAA) Obs / Visual Weed Control ECHCG Obs: 11 DAA
Protocol: Post and pre-emergence field trials were conducted in Niigata, Japan. Trial sites were located in commercially grown fields of transplanted rice (Oryza sativa, variety: Koshihikari) using standard herbicide small plot research methodology. The trial plot size was 2 meters (m)×2 m with 3 replications. The nursery plants were grown in the greenhouse using practical methods and transplanted into the field at the 2.5-leaf stage on May 7, 2012. The row and in-row spaces were 30 cm and 17 cm, respectively. The crop was grown using normal cultural practices for fertilization, water management and maintenance to ensure good growth of the crop and the weeds.
Treatments consisted of the benzyl ester of 4-amino-3-chloro-5-fluoro-6-(4-chloro-2-fluoro-3-methoxyphenyl)pyridine-2-carboxylic acid (Compound A) formulated as an SC (suspension concentrate) and various herbicidal components alone and in combination. Compound A benzyl ester was applied on an active ingredient basis. The herbicidal components were applied on an active ingredient basis and included very long chain fatty acid (VLCFA) synthesis-inhibiting and fatty acid/lipid biosynthesis herbicides pretilachlor formulated as a commercially available granular formulation and benfuresate formulated as a commercially available flowable formulation.
Compound A benzyl ester SC was once diluted in 100 mL water in the 200 mL bottle/plot to achieve the desired rates and applied by water injection. Water injection applications were made by hand as evenly as possible. Pretilachlor was applied by hand, and benfuresate was applied using a pipette to achieve the desired rates. Each compound in mixture treatments was applied separately and successively. Water depth was 3 cm at application. […] Visual weed control was scored on a scale of 0 to 100 percent where 0 corresponds to no injury and 100 corresponds to complete kill.
All treatment results, both for the single product and mixtures, are an average of 3 replicates. The trial sites had naturally occurring populations of weeds. The weed spectrum included, but was not limited to, common barnyardgrass (Echinochloa crus-galli, ECHCG), monochoria (Monochoria vaginalis, MOOVA), Japanese bulrush (Scirpus juncoides, SCPJU), kuroguwai (Eleocharis kuroguwai, ELOKU), common falsepimpernel (Lindernia pyxidaria, LIDPY), Souchet tardif (Cyperus serotinus, CYPSE), small-flower flatsedge (Cyperus difformis, CYPDI), American waterwort (Elatine triandra, ELTTR), and swamp smartweed (Polygonum hydropiperoides, POLHP).
Colby's equation was used to determine the herbicidal effects expected from the mixtures (Colby, S. R. 1967. Calculation of the synergistic and antagonistic response of herbicide combinations. Weeds 15:20-22.).
Some of the compounds tested, application rates employed, plant species tested, and results for submerged (weeds have not yet emerged from the flood water) weed control are given in Table 54. Some of the compounds tested, application rates employed, plant species tested, and results for early postemergence weed control are given in Tables 55-56.

Compound: COc1c(Cl)ccc(-c2nc(C(=O)OCc3ccccc3)c(Cl)c(N)c2F)c1F [Compound A Benzyl Ester, benzyl ester of 4-amino-3-chloro-5-fluoro-6-(4-chloro-2-fluoro-3-methoxy-phenyl)pyridine-2-carboxylic acid]
- Visual Weed Control (%) - 21 DAA CYPRO Obs (CYPRO; 4.38 gae/ha): 0%
- Visual Weed Control CYPRO Obs (CYPRO; 4.38 gae/ha, 20 DAA): 0%
- Visual Weed Control CYPRO Obs (CYPRO; 4.38 gae/ha, 21 DAA): 0%
- Visual Weed Control CYPRO Obs (CYPRO; 8 gae/ha, 19 DAA): 50%
- Visual Weed Control (%) - 20 DAA CYPRO Obs (CYPRO; 8.75 gae/ha): 20% and 30%
- Visual Weed Control (%) - 21 DAA CYPRO Obs (CYPRO; 8.75 gae/ha): 30%
- Visual Weed Control CYPRO Obs (CYPRO; 8.75 gae/ha, 20 DAA): 20%
- Visual Weed Control CYPRO Obs (CYPRO; 8.75 gae/ha, 21 DAA): 30%
- Visual Weed Control (%) - 20 DAA CYPRO Obs (CYPRO; 17.5 gae/ha): 95%
- Visual Weed Control CYPRO Obs (CYPRO; 17.5 gae/ha, 20 DAA): 95%
- Visual Weed Control LEFCH Obs (LEFCH; 4.38 gae/ha, 22 DAA): 20%
- Visual Weed Control LEFCH Obs (LEFCH; 8 gae/ha, 19 DAA): 0%
- Visual Weed Control LEFCH Obs (LEFCH; 16 gae/ha, 19 DAA): 0%
- Visual Weed Control LEFCH Obs (LEFCH; 32 gae/ha, 19 DAA): 15%
- Visual Weed Control LEFCH Obs (LEFCH; 35 gae/ha, 21 DAA): 50%
- Visual Weed Control LEFCH Obs (LEFCH; 70 gae/ha, 21 DAA): 50%
- Visual Weed Control ECHCG (11 DAA) Obs (ECHCG; 100 gai/ha): 3.3%
- Visual Weed Control ECHCG Obs (ECHCG; 100 gai/ha): 6.7%
- Visual Weed Control ECHCG (16 DAA) Obs (ECHCG; 100 gai/ha): 20.0%

Compound: COc1c(Cl)ccc(-c2nc(C(=O)O)c(Cl)c(N)c2F)c1F [Compound A Acid, 4-amino-3-chloro-6-(4-chloro-2-fluoro-3-methoxyphenyl)-5-fluoropyridine-2-carboxylic acid]
- Visual Weed Control (%) - 20 DAA CYPRO Obs (CYPRO; 8.75 gae/ha): 0%
- Visual Weed Control (%) - 21 DAA CYPRO Obs (CYPRO; 8.75 gae/ha): 0%
- Visual Weed Control CYPRO Obs (CYPRO; 8.75 gae/ha, 21 DAA): 0%
- Visual Weed Control CYPRO Obs (CYPRO; 17.5 gae/ha, 21 DAA): 20%
- Visual Weed Control (%) - 20 DAA CYPRO Obs (CYPRO; 35 gae/ha): 80% and 90%
- Visual Weed Control LEFCH Obs (LEFCH; 10.6 gae/ha, 22 DAA): 20%
- Visual Weed Control LEFCH Obs (LEFCH; 21.2 gae/ha, 22 DAA): 40%
- Visual Weed Control LEFCH Obs (LEFCH; 35 gae/ha, 21 DAA): 5%
- Visual Weed Control LEFCH Obs (LEFCH; 42.4 gae/ha, 22 DAA): 60%
- Visual Weed Control LEFCH Obs (LEFCH; 70 gae/ha, 21 DAA): 23%

Compound: CCS(=O)(=O)Oc1ccc2c(c1)C(C)(C)CO2 [Benfuresate, 2,3-dihydro-3,3-dimethyl-5-benzofuranyl ethanesulfonate]
- Visual Weed Control LEFCH Obs (LEFCH; 75 gai/ha (Full Slot), 22 DAA): 0%
- Visual Weed Control LEFCH Obs (LEFCH; 150 gai/ha (Full Slot), 22 DAA): 0%
- Visual Weed Control ECHCG (11 DAA) Obs (ECHCG; 600 gai/ha): 6.7%
- Visual Weed Control ECHCG (16 DAA) Obs (ECHCG; 600 gai/ha): 20.0%

Compound: CCCOCCN(C(=O)CCl)c1c(CC)cccc1CC [Pretilachlor, 2-chloro-N-(2,6-diethylphenyl)-N-(2-propoxyethyl)acetamide]
- Visual Weed Control (%) - 20 DAA CYPRO Obs (CYPRO; 75 gai/ha): 0%
- Visual Weed Control (%) - 20 DAA CYPRO Obs (CYPRO; 150 gai/ha): 0%
- Visual Weed Control ECHCG Obs (ECHCG; 400 gai/ha): 46.7%

Compound: CCN(CC)C(=O)n1cnc(S(=O)(=O)c2c(C)cc(C)cc2C)n1 [Cafenstrole, N,N-diethyl-3-[(2,4,6-trimethylphenyl)sulfonyl]-1H-1,2,4-triazole-1-carboxamide]
- Visual Weed Control CYPRO Obs (CYPRO; 52.5 gai/ha (Himeadow WP), 21 DAA): 0%
- Visual Weed Control CYPRO Obs (CYPRO; 52.5 gai/ha (Lapost Flowable), 21 DAA): 0%
- Visual Weed Control CYPRO Obs (CYPRO; 105 gai/ha (Himeadow WP), 21 DAA): 0%
- Visual Weed Control CYPRO Obs (CYPRO; 105 gai/ha (Lapost Flowable), 21 DAA): 0%
- Visual Weed Control LEFCH Obs (LEFCH; 210 gai/ha (Lapost Flowable), 21 DAA): 38%

Source: patent US20130310256A1, “HERBICIDAL COMPOSITIONS COMPRISING 4-AMINO-3-CHLORO-5-FLUORO-6-(4-CHLORO-2-FLUORO-3-METHOXYPHENYL) PYRIDINE-2-CARBOXYLIC ACID OR A DERIVATIVE THEREOF AND VLCFA AND LIPID SYNTHESIS INHIBITING HERBICIDES” (DOW AGROSCIENCES LLC, priority 2008, published 2013)
